Publication PMC6270165, “Synthesis and Biological Evaluation of 3-Benzisoxazolyl-4-indolylmaleimides as Potent, Selective Inhibitors of Glycogen Synthase Kinase-3β” (Molecules, 2013)

Legend:
Assay type in all cases: biochemical
GSK-3β = target: T1, GSK-3β (Homo sapiens, UniProt P49841); assay: GSK-3β kinase assay (Z'-LYTE Kinase Assay kit Ser/Thr 9 Peptide); conditions: for IC50: 50 nM enzyme, 30 μM ATP, 2 μM substrate peptide, triplicate, mean ± SE, read-out: GSK-3β inhibitory activity IC50 (nM) ± SE; for Selectivity for GSK-3β over other tested kinases: versus PKC-epsilon, JAK2, BRAF, IKK2 and Drak2
T1 construct: GST (N, cleaved yes); made in house; host or cells: Escherichia coli BL21-Codon Plus (DE3)
Description: (§1) GSK3β belongs to CMGC family. Here, the other family members were used to evaluate the selectivity of GSK3β inhibitors, including PKC-epsilon (AGC family), JAK2 (TK family), Braf (TKL family), DRAK2 (CAMK family) and IKKβ (other family).The recombinant GST-GSK-3βprotein was expressed in Escherichia coli strain BL21-Codon Plus (DE3), purified by GSTrap affinity chromatography, and cleaved by thrombin. The GSK-3β kinase assay was carried out with the Z´-LYTETM Kinase Assay kit Ser/Thr 9 Peptide substrate (Invitrogen, Grand, NY, USA) in 10 μL reaction volume containing 50 nM enzyme, 30 μM ATP and 2 μM substrate peptide. Drak2 Proteins were presented by professor Jiang-ping Wu (Laboratory of Immunology, Research Centre, CHUM, Notre Dame Hospital, Pavilion DeSève). The Drak2 kinase reaction was performed in a final assay volume of 3.4 μL using the ADP-GLO Kinase Assay Kit (Promega, Madison, WI, USA), according the ADP-GLO protocol and read on an EnVision plate reader. The recombinant PKC-epsilon, IKKβ, and JAK2 with N-terminal His-tag were expressed using baculovirus expression system and purified with Ni-Beads. BRAF protein was from Carna Biosciences, Inc. (Kobe Port Island, Japan). And the related kinase reactions were performed in a final assay volume of 10 μL using the related HTRF Assay Kit (Cisbio, Codolet, France). Reactions were according the HTRF protocol and read on an EnVision plate reader. All reactions were carried out in triplicate. […] Data were expressed as mean ± SE.

BRAF = target: T2, BRAF (Homo sapiens, UniProt P15056); assay: BRAF kinase assay (HTRF); conditions: read-out: BRAF inhibition% at 0.8 μg/mL (~2 μM)
T2 construct: purchased Carna Biosciences, Inc
Description: as §1

Drak2 = target: T3, Drak2 (Homo sapiens, UniProt O94768); assay: Drak2 kinase assay (ADP-GLO); conditions: read-out: Drak2 inhibition% at 0.8 μg/mL (~2 μM)
T3 sequence (O94768 1-372): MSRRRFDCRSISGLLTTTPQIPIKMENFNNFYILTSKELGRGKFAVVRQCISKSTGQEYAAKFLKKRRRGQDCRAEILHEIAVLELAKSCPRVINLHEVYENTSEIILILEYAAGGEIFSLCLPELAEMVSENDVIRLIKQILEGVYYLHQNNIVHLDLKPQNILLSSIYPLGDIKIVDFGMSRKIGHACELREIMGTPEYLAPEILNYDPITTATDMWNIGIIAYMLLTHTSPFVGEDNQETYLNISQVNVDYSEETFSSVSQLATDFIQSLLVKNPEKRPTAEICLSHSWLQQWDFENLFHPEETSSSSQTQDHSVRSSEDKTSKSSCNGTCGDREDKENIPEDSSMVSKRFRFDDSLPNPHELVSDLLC
Description: as §1

IKK2 = target: T4, IKK2 (Homo sapiens, UniProt O14920); assay: IKK2 (IKKβ) kinase assay (HTRF); conditions: read-out: IKK2 inhibition% at 0.8 μg/mL (~2 μM)
T4 construct: His-tag (N); made in house
T4 sequence (O14920 1-756): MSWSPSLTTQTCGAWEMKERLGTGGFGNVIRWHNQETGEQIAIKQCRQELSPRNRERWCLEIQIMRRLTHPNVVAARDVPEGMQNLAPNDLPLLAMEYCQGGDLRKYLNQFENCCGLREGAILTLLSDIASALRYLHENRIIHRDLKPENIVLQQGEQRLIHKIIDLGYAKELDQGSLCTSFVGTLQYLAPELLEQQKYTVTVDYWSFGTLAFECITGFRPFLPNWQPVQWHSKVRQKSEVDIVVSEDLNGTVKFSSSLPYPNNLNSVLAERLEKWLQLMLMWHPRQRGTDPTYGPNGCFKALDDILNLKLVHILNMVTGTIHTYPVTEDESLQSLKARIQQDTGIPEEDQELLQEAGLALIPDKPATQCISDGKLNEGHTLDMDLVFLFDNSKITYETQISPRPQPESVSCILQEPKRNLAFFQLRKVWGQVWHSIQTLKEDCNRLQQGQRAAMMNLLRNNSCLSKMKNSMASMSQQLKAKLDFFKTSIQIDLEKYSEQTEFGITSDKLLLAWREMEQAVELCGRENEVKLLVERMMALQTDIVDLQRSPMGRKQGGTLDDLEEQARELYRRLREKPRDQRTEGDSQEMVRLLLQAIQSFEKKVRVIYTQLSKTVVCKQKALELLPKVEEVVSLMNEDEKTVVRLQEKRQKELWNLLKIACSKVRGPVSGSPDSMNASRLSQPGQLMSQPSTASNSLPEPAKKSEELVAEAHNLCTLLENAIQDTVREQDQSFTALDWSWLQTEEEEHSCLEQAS
Description: as §1

JAK2 = target: T5, JAK2 (Homo sapiens, UniProt O60674); assay: JAK2 kinase assay (HTRF); conditions: read-out: JAK2 inhibition% at 0.8 μg/mL (~2 μM)
T5 construct: His-tag (N); made in house
Description: as §1

PKC-epsilon = target: T6, PKC-epsilon (Homo sapiens, UniProt Q02156); assay: PKC-epsilon kinase assay (HTRF); conditions: read-out: PKC-epsilon inhibition% at 0.8 μg/mL (~2 μM)
T6 construct: His-tag (N); made in house
T6 sequence (Q02156 1-737): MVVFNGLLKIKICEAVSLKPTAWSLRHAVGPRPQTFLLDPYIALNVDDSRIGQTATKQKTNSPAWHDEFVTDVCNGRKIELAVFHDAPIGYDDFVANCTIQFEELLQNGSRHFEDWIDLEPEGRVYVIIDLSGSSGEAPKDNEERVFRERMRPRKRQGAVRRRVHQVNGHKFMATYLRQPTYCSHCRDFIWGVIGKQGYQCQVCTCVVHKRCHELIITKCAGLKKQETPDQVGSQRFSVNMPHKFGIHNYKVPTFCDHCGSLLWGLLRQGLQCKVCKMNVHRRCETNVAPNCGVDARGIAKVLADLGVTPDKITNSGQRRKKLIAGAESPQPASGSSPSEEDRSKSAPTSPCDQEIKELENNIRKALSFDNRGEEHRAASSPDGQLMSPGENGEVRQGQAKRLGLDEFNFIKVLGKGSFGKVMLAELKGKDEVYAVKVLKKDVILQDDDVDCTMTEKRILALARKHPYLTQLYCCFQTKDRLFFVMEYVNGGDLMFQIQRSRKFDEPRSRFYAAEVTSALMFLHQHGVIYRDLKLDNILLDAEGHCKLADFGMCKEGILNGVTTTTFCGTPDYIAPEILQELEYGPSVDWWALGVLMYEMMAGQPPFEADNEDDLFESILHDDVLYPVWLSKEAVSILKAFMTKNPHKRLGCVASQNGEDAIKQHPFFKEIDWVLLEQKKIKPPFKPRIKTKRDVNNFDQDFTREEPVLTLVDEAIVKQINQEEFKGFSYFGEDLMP
Description: as §1

T1 sequence (P49841 whole entry): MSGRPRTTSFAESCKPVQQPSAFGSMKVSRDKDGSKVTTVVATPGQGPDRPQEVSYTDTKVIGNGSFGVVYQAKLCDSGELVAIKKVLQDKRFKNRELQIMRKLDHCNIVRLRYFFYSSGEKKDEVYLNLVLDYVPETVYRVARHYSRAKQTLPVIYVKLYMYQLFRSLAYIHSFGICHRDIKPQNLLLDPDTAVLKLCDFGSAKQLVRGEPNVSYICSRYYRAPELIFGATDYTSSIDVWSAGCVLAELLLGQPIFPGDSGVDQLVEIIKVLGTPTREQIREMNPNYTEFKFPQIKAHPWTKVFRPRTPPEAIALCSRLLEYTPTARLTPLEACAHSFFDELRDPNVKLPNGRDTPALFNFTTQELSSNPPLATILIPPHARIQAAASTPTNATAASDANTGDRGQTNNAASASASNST
T5 sequence (O60674 whole entry): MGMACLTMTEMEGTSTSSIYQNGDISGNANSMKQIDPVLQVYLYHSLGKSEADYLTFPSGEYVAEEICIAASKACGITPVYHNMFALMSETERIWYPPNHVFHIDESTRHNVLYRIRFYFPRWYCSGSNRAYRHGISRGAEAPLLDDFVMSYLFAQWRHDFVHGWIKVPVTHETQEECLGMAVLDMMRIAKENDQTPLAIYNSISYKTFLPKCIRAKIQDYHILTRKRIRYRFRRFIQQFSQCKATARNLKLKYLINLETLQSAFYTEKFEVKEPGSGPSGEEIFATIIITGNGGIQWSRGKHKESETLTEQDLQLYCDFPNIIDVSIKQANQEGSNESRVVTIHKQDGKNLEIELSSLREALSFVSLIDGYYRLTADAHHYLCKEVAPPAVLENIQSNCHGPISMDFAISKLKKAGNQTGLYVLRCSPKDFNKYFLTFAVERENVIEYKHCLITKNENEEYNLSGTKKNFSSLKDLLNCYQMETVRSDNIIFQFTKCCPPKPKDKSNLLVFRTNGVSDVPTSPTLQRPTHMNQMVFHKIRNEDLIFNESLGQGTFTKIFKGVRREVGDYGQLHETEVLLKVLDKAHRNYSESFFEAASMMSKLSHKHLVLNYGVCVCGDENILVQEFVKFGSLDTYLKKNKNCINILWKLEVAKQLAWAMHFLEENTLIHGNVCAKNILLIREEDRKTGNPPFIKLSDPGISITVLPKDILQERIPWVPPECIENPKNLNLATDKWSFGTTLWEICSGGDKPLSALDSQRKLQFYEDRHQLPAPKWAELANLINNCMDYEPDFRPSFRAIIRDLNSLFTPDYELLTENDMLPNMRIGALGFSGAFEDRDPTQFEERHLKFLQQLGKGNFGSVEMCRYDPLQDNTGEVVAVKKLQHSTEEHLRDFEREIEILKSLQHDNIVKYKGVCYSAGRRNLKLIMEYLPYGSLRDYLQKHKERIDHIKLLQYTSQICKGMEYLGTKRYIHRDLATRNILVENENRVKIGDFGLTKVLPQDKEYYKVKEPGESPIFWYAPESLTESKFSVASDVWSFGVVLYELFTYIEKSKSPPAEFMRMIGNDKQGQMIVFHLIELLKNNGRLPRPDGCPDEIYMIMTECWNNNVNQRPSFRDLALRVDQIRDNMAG
T2 sequence (P15056 whole entry): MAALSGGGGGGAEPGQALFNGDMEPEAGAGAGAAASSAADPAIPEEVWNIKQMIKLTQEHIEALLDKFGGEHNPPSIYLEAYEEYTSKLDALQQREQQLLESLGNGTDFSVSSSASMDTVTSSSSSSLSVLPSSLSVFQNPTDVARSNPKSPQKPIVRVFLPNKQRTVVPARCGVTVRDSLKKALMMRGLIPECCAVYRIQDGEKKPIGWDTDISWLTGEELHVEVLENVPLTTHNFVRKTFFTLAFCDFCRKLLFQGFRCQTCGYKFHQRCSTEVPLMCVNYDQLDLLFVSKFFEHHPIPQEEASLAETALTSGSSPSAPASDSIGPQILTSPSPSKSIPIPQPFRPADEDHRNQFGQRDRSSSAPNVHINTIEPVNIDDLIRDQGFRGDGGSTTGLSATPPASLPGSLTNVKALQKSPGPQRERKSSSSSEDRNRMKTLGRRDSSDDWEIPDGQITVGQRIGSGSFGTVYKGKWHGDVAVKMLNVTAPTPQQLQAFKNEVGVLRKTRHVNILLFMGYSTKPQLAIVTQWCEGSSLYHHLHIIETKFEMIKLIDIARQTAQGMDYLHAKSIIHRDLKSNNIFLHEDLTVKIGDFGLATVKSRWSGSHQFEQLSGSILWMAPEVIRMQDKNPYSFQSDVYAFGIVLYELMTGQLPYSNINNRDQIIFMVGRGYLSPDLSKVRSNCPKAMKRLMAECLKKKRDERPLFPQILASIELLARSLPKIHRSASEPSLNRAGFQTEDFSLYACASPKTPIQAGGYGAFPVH

Row | Compound | IC50 (GSK-3β) | also measured
1 | O=C1NC(=O)C(c2noc3ccccc23)=C1c1c[nH]c2ccccc12 [7a, 3-(Benzo[d]isoxazol-3-yl)-4-(1H-indol-3-yl)-1H-pyrrole-2,5-dione] | 332 ± 25.7 nM | 
2 | COc1ccc2c(c1)c(C1=C(c3noc4ccccc34)C(=O)NC1=O)cn2CCCN1CCOCC1 [7b, 3-(Benzo[d]isoxazol-3-yl)-4-(5-methoxy-1-(3-morpholinopropyl)-1H-indol-3-yl)-1H-pyrrole-2,5-dione] | 357 ± 17.1 nM | 
3 | O=C1NC(=O)C(c2cn(CCCN3CCOCC3)c3cc(Br)ccc23)=C1c1noc2ccccc12 [7d, 3-(Benzo[d]isoxazol-3-yl)-4-(6-bromo-1-(3-morpholinopropyl)-1H-indol-3-yl)-1H-pyrrole-2,5-dione] | 210 ± 8.9 nM | 
4 | O=C1NC(=O)C(c2cn(CCCN3CCOCC3)c3cc(Cl)ccc23)=C1c1noc2ccccc12 [7e, 3-(Benzo[d]isoxazol-3-yl)-4-(6-chloro-1-(3-morpholinopropyl)-1H-indol-3-yl)-1H-pyrrole-2,5-dione] | 510 ± 20.1 nM | 
5 | O=C1NC(=O)C(c2cn(CCN3CCOCC3)c3ccccc23)=C1c1noc2ccccc12 [7g, 3-(Benzo[d]isoxazol-3-yl)-4-(1-(2-morpholinoethyl)-1H-indol-3-yl)-1H-pyrrole-2,5-dione] | 615.6 ± 6.1 nM | 
6 | O=C1NC(=O)C(c2cn(CCCN3CCOCC3)c3ccccc23)=C1c1noc2ccccc12 [7h, 3-(Benzo[d]isoxazol-3-yl)-4-(1-(3-morpholinopropyl)-1H-indol-3-yl)-1H-pyrrole-2,5-dione] | 138 ± 6 nM | 
7 | O=C1NC(=O)C(c2cn(CCCCN3CCOCC3)c3ccccc23)=C1c1noc2ccccc12 [7i, 3-(Benzo[d]isoxazol-3-yl)-4-(1-(4-morpholinobutyl)-1H-indol-3-yl)-1H-pyrrole-2,5-dione] | 411 ± 8.2 nM | 
8 | O=C1NC(=O)C(c2cn(CCCn3ccnc3)c3ccccc23)=C1c1noc2ccccc12 [7j, 3-(1-(3-(1H-Imidazol-1-yl)propyl)-1H-indol-3-yl)-4-(benzo[d]isoxazol-3-yl)-1H-pyrrole-2,5-dione] | 0.73 ± 0.02 nM | inhibition at 2 µM (BRAF): 0.8%; inhibition at 2 µM (Drak2): 4.47%; GSK-3β inhibitory potency, fold more potent than compound 7a (GSK-3β; ratio of IC50 values, versus 7a): about 460 fold; Selectivity for GSK-3β over other tested kinases (GSK-3β): high selectivity; inhibition at 2 µM (IKK2): 3.5%; inhibition at 2 µM (JAK2): 4.9%; inhibition at 2 µM (PKC-epsilon): 10.9%
9 | O=C1NC(=O)C(c2cn(CCCCn3ccnc3)c3ccccc23)=C1c1noc2ccccc12 [7k, 3-(1-(4-(1H-Imidazol-1-yl)butyl)-1H-indol-3-yl)-4-(benzo[d]isoxazol-3-yl)-1H-pyrrole-2,5-dione] | 89.8 ± 4.5 nM | 
10 | O=C1NC(=O)C(c2cn(CCCn3cncn3)c3ccccc23)=C1c1noc2ccccc12 [7l, 3-(1-(3-(1H-1,2,4-Triazol-1-yl)propyl)-1H-indol-3-yl)-4-(benzo[d]isoxazol-3-yl)-1H-pyrrole-2,5-dione] | 20.9 ± 5.1 nM | 
11 | O=C1NC(=O)C(c2cn(CCCN3CCCCC3)c3ccccc23)=C1c1noc2ccccc12 [7m, 3-(Benzo[d]isoxazol-3-yl)-4-(1-(3-(piperidin-1-yl)propyl)-1H-indol-3-yl)-1H-pyrrole-2,5-dione] | 512 ± 15.6 nM | 
12 | O=C1NC(=O)C(c2cn(CCCN3CCCC3)c3ccccc23)=C1c1noc2ccccc12 [7n, 3-(Benzo[d]isoxazol-3-yl)-4-(1-(3-(pyrrolidin-1-yl)propyl)-1H-indol-3-yl)-1H-pyrrole-2,5-dione] | 659 ± 15.7 nM | 
13 | Cn1cc(C2=C(c3noc4ccccc34)C(=O)NC2=O)c2ccccc21 [7o, 3-(Benzo[d]isoxazol-3-yl)-4-(1-methyl-1H-indol-3-yl)-1H-pyrrole-2,5-dione] | 22.1 ± 1.5 nM | inhibition at 2 µM (BRAF): 1.1%; inhibition at 2 µM (Drak2): 13.8%; Selectivity for GSK-3β over other tested kinases (GSK-3β): high selectivity; inhibition at 2 µM (IKK2): 2.9%; inhibition at 2 µM (JAK2): 9.4%; inhibition at 2 µM (PKC-epsilon): 21.2%
14 | CCCCn1cc(C2=C(c3noc4ccccc34)C(=O)NC2=O)c2ccccc21 [7p, 3-(Benzo[d]isoxazol-3-yl)-4-(1-butyl-1H-indol-3-yl)-1H-pyrrole-2,5-dione] | 58.7 ± 2.8 nM | 
15 | O=C1NC(=O)C(c2cn(CCCO)c3ccccc23)=C1c1noc2ccccc12 [7q, 3-(Benzo[d]isoxazol-3-yl)-4-(1-(3-hydroxypropyl)-1H-indol-3-yl)-1H-pyrrole-2,5-dione] | 38.9 ± 2.6 nM | 
